Reference: the NIST ThermoML archive (doi:10.1021/je060025z)
Numbers after ± are expanded uncertainties.

Tests used:
[1] = refractive index (Na D-line) (dimensionless); conditions: 101.33 kPa, Liquid, Standard Abbe refractometry
[2] = 101.33 kPa, Liquid, Vibrating tube method

Row | refractive index ([1]; 293.15 K) | mass density ([2]; 293.15 K) [kg/m3] | SMILES | also measured
1 | – | – | COC(C)(C)C [2-methoxy-2-methylpropane] | refractive index ([1]; 298.15 K): 1.3664 ± 0.0011; mass density ([2]; 298.15 K): 734.7 ± 2 kg/m3
2 | 1.3884 ± 0.0011 | 804.8 ± 2.1 | CC(=O)C(C)C [3-methyl-2-butanone] | –
3 | 1.4075 ± 0.0011 | 808.4 ± 2.1 | CC(C)CCO [3-methylbutan-1-ol] | –
4 | 1.4068 ± 0.0011 | 817.6 ± 2.2 | CCCC(=O)CCC [4-heptanone] | –
5 | 1.4601 ± 0.0011 | 849 ± 2.3 | CCCCCCCC/C=C\CCCCCCCCO [(Z)-9-octadecen-1-ol] | –
6 | 1.3982 ± 0.0011 | – | CCCC(=O)O [butanoic acid] | mass density ([2]; 298.15 K): 952.3 ± 2.5 kg/m3
7 | 1.4421 ± 0.0011 | 968.4 ± 2.6 | CC(=O)OC1CCCCC1 [cyclohexyl ethanoate] | –
8 | 1.4374 ± 0.0011 | 829.6 ± 2.2 | CCCCCCCCCCO [decan-1-ol] | –
9 | – | – | CCCCCCCCCCCCO [dodecan-1-ol] | mass density ([2]; 297.15 K): 831.1 ± 2.2 kg/m3
10 | 1.372 ± 0.0011 | 900.1 ± 2.4 | CCOC(C)=O [ethyl acetate] | –
11 | – | – | CCCCCC [hexane] | refractive index ([1]; 298.15 K): 1.3729 ± 0.0011; mass density ([2]; 298.15 K): 660.4 ± 1.8 kg/m3
12 | 1.4327 ± 0.0011 | 828.5 ± 2.2 | CCCCCCCCCO [nonan-1-ol] | –
13 | – | 810.7 ± 2.2 | CCCCCCCCN(CCCCCCCC)CCCCCCCC [trioctylamine] | refractive index ([1]; 292.15 K): 1.4505 ± 0.0011
14 | 1.3324 ± 0.0011 | 999.9 ± 2.7 | O [water] | –

Row | SMILES | refractive index ([1]; 293.15 K) | mass density ([2]; 293.15 K) [kg/m3] | also measured
15 | CC(=O)CC(C)C [4-methylpentan-2-one] | 1.3958 ± 0.0011 | – | mass density ([2]; 298.15 K): 796.1 ± 2.1 kg/m3
16 | CCC(C)=O [butanone] | 1.3793 ± 0.0011 | – | mass density ([2]; 298.15 K): 798.2 ± 2.1 kg/m3
17 | CCCCOC(=O)c1ccccc1C(=O)OCCCC [dibutyl phthalate] | 1.4909 ± 0.0011 | 1047.1 ± 2.8 | –
18 | COC(=O)c1ccccc1C(=O)OC [dimethyl 1,2-benzenedicarboxylate] | 1.5135 ± 0.0011 | 1190.4 ± 3.2 | –
19 | Cc1ccccc1 [toluene] | 1.496 ± 0.0011 | 866.7 ± 2.3 | –
